≈ marks a conversion by molar mass, not a printed value. Where only a bound is given, the exact number is not on record here.

The values below come from US20210052597A1, “HETEROCYCLIC COMPOUNDS USEFUL AS ANTIBACTERIAL AGENTS” (CADILA HEALTHCARE LIMITED, priority 2018, published 2021).

The test system of experiment [1] is Mycobacterium tuberculosis. As to conditions: from WO 2008009700 / J. Med. Chem. 2014, 57, 4889-4905; cited from earlier work.
Experiment [2] deals with Staphylococcus aureus ATCC 29213. Description: MIC, growth inhibition in Mueller Hinton Broth. As to conditions: ATCC29213, S. aureus ATCC 29213, Gram positive, read-out: Minimum Inhibitory Concentration S. aureus ATCC 29213. Type of experiment: cell-based.
The subject of experiment [3] is Escherichia coli ATCC 25922. The experiment can be described thus: MIC, growth inhibition in Mueller Hinton Broth. Type of experiment: cell-based. To be noted: ATCC25922, E. coli ATCC 25922, Gram-negative, read-out: Minimum Inhibitory Concentration E. coli ATCC 25922.
Experiment [4] has as its system Staphylococcus aureus ZYABL 006. Description: MIC against fluoroquinolone resistant strain. Format: cell-based. To be noted: ZYABL006, quinolone resistant clinical strain, read-out: Minimum Inhibitory Concentration Staphylococcus aureus ZYABL 006.
Another experiment has as its target T1, Topoisomerase IV (Escherichia coli, UniProt P0AFI2).
T1 construct: purchased Inspiralis
The experiment can be described thus: Topoisomerase IV inhibition, gel electrophoresis method. Format: biochemical. As to conditions: 37° C. for 30 min, read-out: Invitro IC50 Topoisomerase IV. The procedure:
(§1) Evaluation of Topoisomerase II/IV inhibition using gel electrophoresis method: Topoisomerase II/IV (1 unit, Inspiralis) was added to a reaction mixture of DNA (pHOT/kDNA, Topogen) and ATP in appropriate buffers following which different concentrations of the test compounds were added and incubated at 37° C. for 30 min. The reaction was terminated after 30 minutes by the addition of stop buffer. The resulting DNA (relaxed, supercoiled or decatanated) was extracted using chloroform: isoamyl alcohol mixture and was separated using 1% agarose gel electrophoresis. Gel was stained with ethidium bromide for 20 minutes, washed with distilled water and the images were captured for further analysis. The band Intensities from the image were measured using Image J software and the half-maximal […] inhibitory concentration was deduced using Graphpad Prism.

Another experiment concerns the target T2, hERG channel (Homo sapiens, UniProt Q12809).
T2 construct: expressed in transfected cells; host or cells: CHO cells
Description: hERG binding study, FluxOR potassium ion channel assay. Format: cell-based. To be noted: hERG CHO cells, thallium flux, 20 min incubation. The procedure:
FluxOR™ Potassium Ion Channel Assay
Thallium flows down its concentration gradient into the cells, and channel activity is detected with indicator dye that increases in cytosolic fluorescence. Stably expressing hERG CHO cells are checked with test compounds for hERG liability. Compounds incubated for 20 min with cells then stimulation buffer was added and fluorescence measured on TECAN multimode reader. If test compound is inhibiting hERG channel then it will not allow the thallium to flows down in the cells. Vehicle control is considered as total hERG response while treatment with Astemizole as a total hERG channel inhibition and based on that test compounds hERG channel inhibition calculated.
Background: Block of hERG is tested as a sign of cardiac risk.

The target in a further experiment is Topoisomerase II (UniProt P20831). Description: Topoisomerase II inhibition, gel electrophoresis method. Type of experiment: biochemical. As to conditions: 37° C. for 30 min, read-out: Invitro IC50 Topoisomerase II. On the procedure: as §1
Sequence of Topoisomerase II (P20831 whole entry): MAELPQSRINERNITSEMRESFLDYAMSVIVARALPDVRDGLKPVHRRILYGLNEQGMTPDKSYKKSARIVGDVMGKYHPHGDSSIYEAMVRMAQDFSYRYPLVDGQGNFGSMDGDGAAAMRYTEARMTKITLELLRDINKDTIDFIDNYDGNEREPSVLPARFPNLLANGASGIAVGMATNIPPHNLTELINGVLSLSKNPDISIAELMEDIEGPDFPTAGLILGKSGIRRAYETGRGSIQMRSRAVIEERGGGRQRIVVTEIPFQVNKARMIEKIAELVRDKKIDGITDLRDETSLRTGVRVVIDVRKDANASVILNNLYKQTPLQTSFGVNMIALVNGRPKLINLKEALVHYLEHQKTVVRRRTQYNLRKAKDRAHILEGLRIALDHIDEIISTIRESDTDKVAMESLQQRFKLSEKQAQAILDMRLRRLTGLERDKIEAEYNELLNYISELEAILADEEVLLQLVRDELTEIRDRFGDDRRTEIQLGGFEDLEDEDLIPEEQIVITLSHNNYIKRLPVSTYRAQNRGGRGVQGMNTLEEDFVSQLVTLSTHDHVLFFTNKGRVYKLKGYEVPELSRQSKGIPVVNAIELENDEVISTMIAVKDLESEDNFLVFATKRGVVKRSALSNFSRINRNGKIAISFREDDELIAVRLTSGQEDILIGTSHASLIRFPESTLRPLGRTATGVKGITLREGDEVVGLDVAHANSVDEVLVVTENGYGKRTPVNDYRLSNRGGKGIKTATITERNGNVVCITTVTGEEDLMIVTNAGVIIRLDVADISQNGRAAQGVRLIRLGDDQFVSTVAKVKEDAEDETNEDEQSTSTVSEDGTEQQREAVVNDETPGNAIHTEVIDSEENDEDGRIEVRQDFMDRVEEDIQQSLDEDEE
The subject of experiment [5] is Acinetobacter baumannii (BAA1605). The experiment can be described thus: MIC testing against broad panel of strains. To be noted: BAA1605, read-out: MIC Acinetobacter baumannii (BAA1605).
Description: (§2) The ability of the invention compounds disclosed herein to achieve an antibacterial effect may be evaluated with regard to their ability to inhibit the growth of bacterial species like Escherichia coli ATCC 25922, Staphylococcus aureus ATCC 29213 using an assay based on the following Minimum Inhibitory Concentration (MIC) protocol:
(§3) The test bacteria are grown in Muellor Hinton Broth (M1657)—MHB, 25 grams of the powder is dissolved in 1000 ml distilled water and sterilized by autoclaving at 15 lbs pressure (121° C.) for 20 minutes. The medium sterility is checked by incubating at 37° C. for a period of 48 h.
(§4) Bacterial cultures that are stored as glycerol stocks at −80° C. are sub cultured on LB agar plates to obtain isolated colonies. A single colony of each strain is cultured in LB broth. The cultures are incubated at 37° C., 200 rpm till they reach an optical density (OD at 600 nm) of 0.8 to 1. This log phase culture is diluted in LB broth to a cell number of 5-8*10^5 CFU/mL to be used as inoculum for MIC experiments.
(§5) Test compounds were diluted in their respective solvents and added to a final concentration ranging from 16 to 0.12 μg/ml in 150 μl MHB in 96 well plates.
(§6) Controls to monitor the effects of DMSO and media sterility are included. […] The following morning, the plates are read using a Spectrophotometer at 600 nm wavelength.
Experiment [6] concerns Enterococcus faecalis (ATCC700802). Description: MIC testing against broad panel of strains. To be noted: ATCC700802, read-out: MIC Enterococcus faecalis (ATCC700802).
Description: as §2, §3, §4, §5, §6
In experiment [7] the test system is Staphylococcus aureus (BAA38). The experiment can be described thus: MIC testing against broad panel of strains. As to conditions: BAA38, read-out: MIC Staphylococcus aureus (BAA38).
Description: as §2, §3, §4, §5, §6
Experiment [8] concerns Klebsiella pneumonia (ATCC35657). The experiment can be described thus: MIC testing against broad panel of strains. As to conditions: Klebsiella pneumoniae, ATCC35657, read-out: MIC Klebsiella pneumonia (ATCC35657).
Description: as §2, §3, §4, §5, §6
For experiment [9], the system named is Staphylococcus pneumonia (ATCC700906). Description: MIC testing against broad panel of strains. As to conditions: ATCC700906, read-out: MIC Staphylococcus pneumonia (ATCC700906).
Description: as §2, §3, §4, §5, §6
For experiment [10], the system named is Escherichia coli (ATCC10536). The experiment can be described thus: MIC testing against broad panel of strains. As to conditions: ATCC10536, read-out: MIC Escherichia coli (ATCC10536).
Description: as §2, §3, §4, §5, §6
Experiment [11] relates to Mycobacterium tuberculosis H37Rv. Description: Mycobacterium tuberculosis H37Rv inhibition assay (MIC). Type of experiment: cell-based. The procedure: Mycobacterium tuberculosis H37Rv Inhibition Assay
The measurement of the minimum inhibitory concentration (MIC) for each tested compound was performed in 96 wells flat bottom, polystyrene microtiter plates following standard protocol.

The test system of a further experiment is K pneumonia ATCC 700603. As to conditions: from WO 2018172925; cited from earlier work.
Experiment [12] deals with Enterococcus Faecalis ATCC29212. To be noted: from WO 2018172925; cited from earlier work.
A further experiment relates to E. coli ATCC 25922. To be noted: from WO 2018172925; cited from earlier work.
The next experiment relates to S. pnuemoniae ATCC6301. To be noted: from WO 2018172925; cited from earlier work.
A further experiment has as its system S. aureus-ATCC 29213. To be noted: from WO 2018172925; cited from earlier work.
Experiment [13] has as its system Moraxella catarrhalis ATCC8176. To be noted: from WO 2018172925; cited from earlier work.

T1 sequence (P0AFI2 whole entry): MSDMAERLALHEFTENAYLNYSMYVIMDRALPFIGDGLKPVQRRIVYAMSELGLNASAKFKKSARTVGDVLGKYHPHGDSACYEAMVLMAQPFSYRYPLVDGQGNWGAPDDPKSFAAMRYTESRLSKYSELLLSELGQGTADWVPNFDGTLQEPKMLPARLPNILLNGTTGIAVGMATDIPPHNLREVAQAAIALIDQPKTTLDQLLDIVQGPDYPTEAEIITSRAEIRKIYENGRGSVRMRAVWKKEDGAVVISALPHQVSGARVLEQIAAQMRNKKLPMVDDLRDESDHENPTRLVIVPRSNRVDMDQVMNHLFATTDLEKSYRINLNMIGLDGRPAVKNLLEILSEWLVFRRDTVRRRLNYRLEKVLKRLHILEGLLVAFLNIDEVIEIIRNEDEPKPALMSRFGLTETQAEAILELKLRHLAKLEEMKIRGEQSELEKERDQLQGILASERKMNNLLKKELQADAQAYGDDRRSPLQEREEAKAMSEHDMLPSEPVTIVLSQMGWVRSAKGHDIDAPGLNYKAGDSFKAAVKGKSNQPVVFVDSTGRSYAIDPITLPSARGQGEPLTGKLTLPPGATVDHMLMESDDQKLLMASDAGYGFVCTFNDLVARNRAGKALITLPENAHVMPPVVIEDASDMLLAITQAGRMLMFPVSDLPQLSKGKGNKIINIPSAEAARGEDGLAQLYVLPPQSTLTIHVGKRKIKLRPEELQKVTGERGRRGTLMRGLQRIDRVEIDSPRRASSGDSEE
T1 sequence (P20083 whole entry, further chain): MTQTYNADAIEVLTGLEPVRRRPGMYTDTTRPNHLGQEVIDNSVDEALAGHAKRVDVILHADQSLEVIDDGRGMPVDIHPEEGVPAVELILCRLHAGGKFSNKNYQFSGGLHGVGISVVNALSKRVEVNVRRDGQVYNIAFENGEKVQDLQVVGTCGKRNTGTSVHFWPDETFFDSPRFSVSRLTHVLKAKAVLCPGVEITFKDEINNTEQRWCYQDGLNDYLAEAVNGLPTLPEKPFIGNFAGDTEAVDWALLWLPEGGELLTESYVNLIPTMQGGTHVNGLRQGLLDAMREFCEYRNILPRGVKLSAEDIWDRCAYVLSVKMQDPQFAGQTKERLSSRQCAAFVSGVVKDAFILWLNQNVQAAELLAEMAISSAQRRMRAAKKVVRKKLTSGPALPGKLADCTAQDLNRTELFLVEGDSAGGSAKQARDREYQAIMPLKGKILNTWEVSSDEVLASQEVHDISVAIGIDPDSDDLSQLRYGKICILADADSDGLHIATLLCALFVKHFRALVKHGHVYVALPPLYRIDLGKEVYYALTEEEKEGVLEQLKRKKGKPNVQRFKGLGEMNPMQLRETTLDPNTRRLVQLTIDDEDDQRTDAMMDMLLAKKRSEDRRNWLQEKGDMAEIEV
T2 sequence (Q12809 whole entry): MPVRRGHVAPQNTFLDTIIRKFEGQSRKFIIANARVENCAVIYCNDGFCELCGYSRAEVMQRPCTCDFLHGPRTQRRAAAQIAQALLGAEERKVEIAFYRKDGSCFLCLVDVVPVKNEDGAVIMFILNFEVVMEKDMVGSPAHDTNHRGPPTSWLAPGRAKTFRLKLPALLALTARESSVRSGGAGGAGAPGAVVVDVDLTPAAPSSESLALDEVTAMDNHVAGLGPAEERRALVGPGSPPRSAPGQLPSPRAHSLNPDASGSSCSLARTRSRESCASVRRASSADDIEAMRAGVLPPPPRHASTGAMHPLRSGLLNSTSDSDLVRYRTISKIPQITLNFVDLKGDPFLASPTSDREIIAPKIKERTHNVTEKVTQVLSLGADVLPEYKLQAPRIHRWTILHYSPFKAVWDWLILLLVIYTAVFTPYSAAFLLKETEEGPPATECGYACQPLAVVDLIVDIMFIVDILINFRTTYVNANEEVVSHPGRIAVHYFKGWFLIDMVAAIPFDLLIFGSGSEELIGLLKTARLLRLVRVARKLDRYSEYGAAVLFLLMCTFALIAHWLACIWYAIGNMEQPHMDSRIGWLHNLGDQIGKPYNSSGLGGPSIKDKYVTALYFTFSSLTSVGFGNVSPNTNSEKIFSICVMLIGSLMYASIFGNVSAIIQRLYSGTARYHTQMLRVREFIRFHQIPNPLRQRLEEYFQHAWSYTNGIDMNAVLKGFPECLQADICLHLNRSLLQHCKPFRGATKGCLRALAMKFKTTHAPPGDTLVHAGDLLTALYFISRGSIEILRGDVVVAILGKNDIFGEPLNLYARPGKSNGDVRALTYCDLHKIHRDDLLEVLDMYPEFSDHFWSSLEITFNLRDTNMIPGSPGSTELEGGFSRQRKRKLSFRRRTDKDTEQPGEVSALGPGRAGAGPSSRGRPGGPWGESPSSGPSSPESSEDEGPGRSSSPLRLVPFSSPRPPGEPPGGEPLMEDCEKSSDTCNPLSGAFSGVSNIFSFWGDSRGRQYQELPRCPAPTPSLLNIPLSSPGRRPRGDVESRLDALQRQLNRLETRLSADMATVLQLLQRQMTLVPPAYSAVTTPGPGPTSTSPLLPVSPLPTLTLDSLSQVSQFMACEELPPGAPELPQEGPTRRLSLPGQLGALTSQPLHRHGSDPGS

Regarding `N#Cc1ccc2ccc(=O)n(CCN3CCC(NCc4cc5c(cn4)OCCO5)CC3)c2c1` [Example 54], the “MIC against Mycobacterium tuberculosis” value in experiment [1] is 1 µM (≈ 0.446 µg/mL).

Regarding `N#Cc1ccc2ncc(=O)n(CCN3CCC(NCc4ccc5c(c4)NC(=O)CS5)CC3)c2c1` [Example 6, 3-oxo-4-(2-(4-(((3-oxo-3,4-dihydro-2H-benzo[b][1,4]thiazin-6-yl)methyl)amino)piperidin-1-yl)ethyl)-3,4-dihydroquinoxaline-6-carbonitrile], the MIC in [2] and in [3] was less than 0.125 µg/mL each time.

One may read the IC50 as the concentration needed to halve the response being measured. `N#Cc1ccc2ccc(=O)n(CCN3CCC(NCc4ccc5c(c4)OCCO5)CC3)c2c1` [Example 1, 1-(2-(4-(((2,3-dihydrobenzo[b][1,4]dioxin-6-yl)methyl)amino)piperidin-1-yl)ethyl)-2-oxo-1,2-dihydroquinoline-7-carbonitrile]: the MIC in [4] is less than 0.125 µg/mL; in experiment [2] it was 0.03 µg/mL (≈ 0.0675 µM); in experiment [3] it was 0.5 µg/mL (≈ 1.12 µM). Also, the values for the IC50 at Topoisomerase IV, at hERG channel and at Topoisomerase II were 900 nM, greater than 30000 nM and 44 nM, respectively.

Consider `O=C1COc2ccc(CNC3CCN(CCn4c(=O)ccc5ccc(F)cc54)CC3)cc2N1` [Example 4, 6-(((1-(2-(7-fluoro-2-oxoquinolin-1(2H)-yl)ethyl)piperidin-4-yl)amino)methyl)-2H-benzo[b][1,4]oxazin-3(4H)-one], for which the MIC in [4], in experiment [2] and in experiment [3] was less than 0.125 µg/mL each time. Also, the IC50 on Topoisomerase IV is 400 nM; at hERG channel, greater than 10000 nM; on Topoisomerase II, 6.9 nM.

As for `N#Cc1ccc2ccc(=O)n(CCN3CCC(NCc4ccc5c(c4)NC(=O)CO5)CC3)c2c1` [Example 2, 2-oxo-1-(2-(4-(((3-oxo-3,4-dihydro-2H-benzo[b][1,4]oxazin-6-yl)methyl)amino)piperidin-1-yl)ethyl)-1,2-dihydroquinoline-7-carbonitrile], the MIC is less than 0.125 µg/mL in experiment [4], 0.25 µg/mL (≈ 0.546 µM) in [2] and 0.25 µg/mL (≈ 0.546 µM) in experiment [3]. The half-inhibitory concentration (IC50) on Topoisomerase IV was 1300 nM; at hERG channel, greater than 10000 nM; on Topoisomerase II it was 3.4 nM.

As for `N#Cc1ccc2ccc(=O)n(CCN3CCC(NCc4ccc5c(c4)NC(=O)CS5)CC3)c2c1` [Example 3, 2-oxo-1-(2-(4-(((3-oxo-3,4-dihydro-2H-benzo[b][1,4]thiazin-6-yl)methyl)amino)piperidin-1-yl)ethyl)-1,2-dihydroquinoline-7-carbonitrile], the MIC was 0.25 µg/mL (≈ 0.528 µM) in [5]; 0.5 µg/mL (≈ 1.06 µM) in experiment [6]; 0.125 µg/mL (≈ 0.264 µM) in experiment [7]; less than 0.125 µg/mL in experiment [4]; 0.25 µg/mL (≈ 0.528 µM) in experiment [8]; 0.06 µg/mL (≈ 0.127 µM) in experiment [2]. Further, the MIC came to 0.125 µg/mL (≈ 0.264 µM) in [9]; 0.125 µg/mL (≈ 0.264 µM) in experiment [3]; 0.125 µg/mL (≈ 0.264 µM) in experiment [10]; 0.25 µM (≈ 0.118 µg/mL) in experiment [11] (Mycobacterium tuberculosis, H37RV, 96 well microtiter plates). Besides, the “inhibition of Mycobacterium tuberculosis (in words)” value in experiment [11] is listed as “potent inhibition”. In addition, the half-maximal inhibitory concentration (IC50) on Topoisomerase IV is 300 nM; on hERG channel it was greater than 10000 nM; at Topoisomerase II, 3.2 nM.

`O=C1CSc2ccc(CNC3CCN(CCn4c(=O)ccc5ccc(F)cc54)CC3)cc2N1` [Example 5, 6-(((1-(2-(7-fluoro-2-oxoquinolin-1(2H)-yl)ethyl)piperidin-4-yl)amino)methyl)-2H-benzo[b][1,4]thiazin-3(4H)-one]: the MIC was less than 0.125 µg/mL in [4], 0.25 µg/mL (≈ 0.536 µM) in experiment [2] and 0.25 µg/mL (≈ 0.536 µM) in experiment [3]. In addition, the figures for the IC50 at Topoisomerase IV, on hERG channel and at Topoisomerase II were 800 nM, greater than 10000 nM and 38.4 nM, respectively.

For the compound `Cc1ccc(CNC2CCN(CCn3c(=O)ccc4ccc(C#N)cc43)CC2)cc1[N+](=O)[O-]` [VT-03-00065], the “MIC K pneumonia ATCC 700603” value in the experiment on K pneumonia ATCC 700603 is greater than 32 µg/mL. For the same compound, the “MIC Enterococcus Faecalis ATCC29212” value in experiment [12] was greater than 32 µg/mL. Moreover, the “MIC E. coli ATCC 25922” value with E. coli ATCC 25922 was greater than 32 µg/mL. In addition, in the experiment on S. pnuemoniae ATCC6301, the “MIC S. pnuemoniae ATCC6301” value was 4 µg/mL (≈ 8.98 µM). The “MIC S. aureus-ATCC 29213” value in the experiment with S. aureus-ATCC 29213 was 0.25 µg/mL (≈ 0.561 µM). Further, in experiment [13], the “MIC Moraxella catarrhalis ATCC8176” value was greater than 32 µg/mL.
